According to patent US4413005A, “Carbamate derivatives and insecticidal, miticidal or nematocidal compositions containing the same” (priority 1981, dated 1983):
Like-named read-outs stand apart in the source and are kept apart here.

Key:
[1] = system: tobacco cutworm (Spodoptera litura); assay: Mortality of third-instar larvae of tobacco cutworm on cabbage (Test Example 1); type: in vivo; conditions: 72 h
Method: Ten third-instar larvae of tobacco cutworm (Spodoptera litura) were placed on a cabbage (one-month-old seedling) planted in a pot, and a 50% emulsion of the compound to be tested was diluted to a specified concentration and applied to the leaves of the plant to fully wet them. The test compound of each specified concentration was tested on two pots.

[2] = system: green rice leafhopper (Nephotettix cincticeps); assay: Mortality of female adults of green rice leafhopper on paddy rice (Test Example 2); type: in vivo; conditions: 72 h
Method: An emulsion of specified concentration was prepared from a 50% wettable powder of the compound to be tested and applied to the leaves of paddy rice (one-month-old seedlings) planted in a pot to fully wet the leaves. After the emulsion had been dried, the pot was covered with a net cage, into which 10 female adults of green rice leafhopper (Nephotettix cincticeps) were released. The compound of each specified concentration was tested on two pots.

[3] = system: house fly (Musca domestica); assay: Local application to house fly, LD50 by Probit method (Test Example 4); type: in vivo; conditions: topical
Method: The compound to be tested was dissolved in a predetermined amount of acetone. The solution was diluted to various concentrations and locally applied to house fly (Musca domestica).

[4] = Acute oral toxicity in male mice, LD50 by Litchfield-Wilcoxon method (Test Example 5); conditions: mouse, in vivo, mortality on the seventh day
Method: Compounds of this invention were tested on male mice for acute toxicity by oral administration.

| SMILES | mortality at 500 ppm [1] | mortality at 1000 ppm [1] | mortality at 2000 ppm [1] | mortality at 200 ppm ([2]; 200 ppm active ingredient, from 50% wettable powder, three days later, read-out: Mortality) | mortality at 400 ppm ([2]; 400 ppm active ingredient, from 50% wettable powder, three days later, read-out: Mortality) | mortality at 800 ppm ([2]; 800 ppm active ingredient, from 50% wettable powder, three days later, read-out: Mortality) | LD50 ([3]; house fly, locally applied in acetone, mortality 24 hours later, Probit method, read-out: LD50) | mortality at 200 ppm [2] | mortality at 400 ppm [2] | mortality at 800 ppm [2] | LD50 at 168 h [4] | LD50 ([3]; 24 h) |
| --- | --- | --- | --- | --- | --- | --- | --- | --- | --- | --- | --- | --- |
| CNC(=O)Oc1cccc2ccccc12 [1-Naphthyl-N--methyl-carbamate, reference compound] | 60% | 80% | 100% | – | – | – | – | – | – | – | – | – |
| CNC(=O)Oc1ccccc1OC(C)C [2-Isopropoxyphenyl-N--methyl-carbamate, reference compound] | – | – | – | 0% | 0% | 0% | 22.5 mg/kg | – | – | – | – | – |
| CN(SN(CC#N)CC#N)C(=O)Oc1cccc2c1OC(C)(C)C2 [Example 1, 2,3-dihydro-2,2-dimethylbenzofuran-7-yl N-[N,N-bis(cyanomethyl)aminosulfenyl]-N-methyl-carbamate] | 65% | 80% | 100% | – | – | – | – | 50% | 85% | 100% | 58 mg/kg | 21.3 mg/kg |
| CCOC(=O)CN(CC(=O)OCC)SN(C)C(=O)Oc1cccc2c1OC(C)(C)C2 [Example 2, 2,3-dihydro-2,2-dimethylbenzofuran-7-yl N-[N,N-bis(ethoxycarbonylmethyl)aminosulfenyl]-N-methylcarbamate] | 60% | 70% | 100% | – | – | – | – | 45% | 85% | 100% | 140 mg/kg | 58.8 mg/kg |
| COC(=O)CN(CC(=O)OC)SN(C)C(=O)Oc1cccc2c1OC(C)(C)C2 [Example 3] | 65% | 80% | 100% | – | – | – | – | 45% | 85% | 100% | 145 mg/kg | 40 mg/kg |
| CC(C)OC(=O)CN(CC(=O)OC(C)C)SN(C)C(=O)Oc1cccc2c1OC(C)(C)C2 [Example 4] | 60% | 70% | 100% | – | – | – | – | 40% | 70% | 100% | 122 mg/kg | 28.9 mg/kg |
| CN(SN(CC(=O)OC1CCCCC1)CC(=O)OC1CCCCC1)C(=O)Oc1cccc2c1OC(C)(C)C2 [Example 5] | 65% | 80% | 100% | – | – | – | – | 45% | 80% | 100% | 90 mg/kg | 75.6 mg/kg |
| CCOC(=O)CCN(CCC(=O)OCC)SN(C)C(=O)Oc1cccc2c1OC(C)(C)C2 [Example 6, 2,3-dihydro-2,2-dimethylbenzofuran-7-yl N-[N,N-bis(ethoxycarbonylethyl)aminosulfenyl]-N-methylcarbamate] | 60% | 75% | 100% | – | – | – | – | 55% | 75% | 95% | 135 mg/kg | 38.3 mg/kg |
| CN(SN(CCC#N)CCC#N)C(=O)Oc1cccc2c1OC(C)(C)C2 [Example 7, 2,3-dihydro-2,2-dimethylbenzofuran-7-yl N-[N,N-bis(cyanoethyl)aminosulfenyl]-N-methyl-carbamate] | 60% | 75% | 100% | – | – | – | – | 50% | 70% | 90% | 75 mg/kg | 54 mg/kg |
| CCOC(=O)CN(CCC#N)SN(C)C(=O)Oc1cccc2c1OC(C)(C)C2 [Example 8] | 75% | 85% | 100% | – | – | – | – | 60% | 85% | 95% | 105 mg/kg | 24.6 mg/kg |
| CCOC(=O)CCN(CC(=O)OCC)SN(C)C(=O)Oc1cccc2c1OC(C)(C)C2 [Example 9] | 80% | 90% | 100% | – | – | – | – | 60% | 90% | 100% | 158 mg/kg | 31.7 mg/kg |
| CCOC(=O)CCCN(CC(=O)OCC)SN(C)C(=O)Oc1cccc2c1OC(C)(C)C2 [Example 10] | 75% | 85% | 100% | – | – | – | – | 60% | 90% | 100% | 115 mg/kg | 46 mg/kg |
| CCOC(=O)CN(SN(C)C(=O)Oc1cccc2c1OC(C)(C)C2)C(CC)C(=O)OCC (stereo not drawn) [Example 11] | 70% | 80% | 100% | – | – | – | – | 55% | 80% | 95% | 93 mg/kg | 93.9 mg/kg |
| CCCCN(CC(=O)OCC)SN(C)C(=O)Oc1cccc2c1OC(C)(C)C2 [Example 12, 2,3-dihydro-2,2-dimethylbenzofuran-7-yl N-(N-butyl-N-ethoxycarbonylmethylaminosulfenyl)-N-methyl-carbamate] | 75% | 90% | 100% | – | – | – | – | 65% | 90% | 100% | 125 mg/kg | 16.7 mg/kg |
| CCOC(=O)CN(SN(C)C(=O)Oc1cccc2c1OC(C)(C)C2)c1ccccc1 [Example 13, 2,3-dihydro-2,2-dimethylbenzofuran-7-yl N-(N-phenyl-N-ethoxycarbonylmethylaminosulfenyl)-N-methylcarbamate] | 75% | 90% | 100% | – | – | – | – | 65% | 90% | 100% | 115 mg/kg | 12.5 mg/kg |
| CCOC(=O)CN(C)SN(C)C(=O)Oc1cccc2c1OC(C)(C)C2 [Example 14, 2,3-Dihydro-2,2-dimethylbenzofuran-7-yl N-(N-methyl-N-ethoxycarbonylmethylaminosulfenyl)-N-methylcarbamate] | 75% | 90% | 100% | – | – | – | – | 65% | 90% | 100% | 120 mg/kg | 9.9 mg/kg |
| CCOC(=O)CN(SN(C)C(=O)Oc1cccc2c1OC(C)(C)C2)C(C)C [Example 15] | 75% | 90% | 100% | – | – | – | – | 65% | 90% | 100% | 110 mg/kg | 33 mg/kg |
| CCOC(=O)CN(SN(C)C(=O)Oc1cccc2c1OC(C)(C)C2)C(C)CC (stereo not drawn) [Example 16] | 65% | 85% | 100% | – | – | – | – | 60% | 80% | 100% | 110 mg/kg | 44.4 mg/kg |
| CCCCCCCCN(CC(=O)OCC)SN(C)C(=O)Oc1cccc2c1OC(C)(C)C2 [Example 17] | 60% | 80% | 100% | – | – | – | – | 55% | 75% | 95% | 69 mg/kg | 42.3 mg/kg |
| CCOC(=O)CN(SN(C)C(=O)Oc1cccc2c1OC(C)(C)C2)C1CCCCC1 [Example 18] | 75% | 90% | 100% | – | – | – | – | 65% | 90% | 100% | 135 mg/kg | 32.5 mg/kg |
| CCOC(=O)CN(Cc1ccccc1)SN(C)C(=O)Oc1cccc2c1OC(C)(C)C2 [Example 19] | 65% | 85% | 100% | – | – | – | – | 60% | 80% | 100% | 108 mg/kg | 22.2 mg/kg |
| CCOC(=O)CN(Cc1ccc(Cl)cc1)SN(C)C(=O)Oc1cccc2c1OC(C)(C)C2 [Example 20] | 65% | 85% | 100% | – | – | – | – | 60% | 80% | 100% | 75 mg/kg | 61.9 mg/kg |
| CCOC(=O)CN(SN(C)C(=O)Oc1cccc2c1OC(C)(C)C2)c1cccc(C)c1 [Example 21] | 75% | 90% | 100% | – | – | – | – | 65% | 90% | 100% | 105 mg/kg | 10.4 mg/kg |
| CCOC(=O)CN(SN(C)C(=O)Oc1cccc2c1OC(C)(C)C2)c1ccc(OC)cc1 [Example 22] | 65% | 85% | 100% | – | – | – | – | 60% | 80% | 100% | 88 mg/kg | 45.2 mg/kg |
